# How the values were obtained:
# [1] = tested on: HCT116 cells; assay: Whole cell cytotoxicity assay, Sulforhodamine B; format: cell-based; details: Homo sapiens, HCT-116, HCT116, 96 hours incubation, SRB; for GI50: read-out: GI50 HCT116 cell growth; for IC50: read-out: IC50 values in this assay (HCT116 cell growth)
# Method: Human tumor-derived cell lines, HCT116 or MCF7 (ATCC) were plated in a 96 well plate in DMEM containing 10% fetal bovine serum and 2 mM L-glutamine at a density of 500 HCT116 cells or 1,000 MCF7 cells per well and incubated at 37° C., 5% CO2, for 24 hours prior to the addition of experimental compounds. Compounds were added using the dilution series indicated to duplicate plates and the cells were incubated in media plus compound for 96 hours. An additional plate was fixed in 10% TCA at the time of the addition of compound to provide a measurement of the cell population at time zero, the time of drug addition. Following the 96 hour incubation, cells were fixed in situ by gently aspirating off the culture media and then adding 50 ul of ice cold 10% TCA per well and incubation at 4° C. for 60 minutes. The plates were washed with tap water five times and allowed to air dry for 5 minute. 50 ul of a 0.4% (w/v) Sulforhodamine B solution in 1% (v/v) acetic acid was added per well and the cells were incubated for 30 minutes at room temperature. Following staining, plates were washed four times with 1% acetic acid to remove any unbound dye and then allowed to air dry for 5 minutes. The stain was solubilized with 100 ul of 10 mM Tris pH 10.5 per well and placed on an orbital rotator for 5 minutes. The absorbance was read at 570 nm. Percentage growth was calculated using the absorbance readings from the time zero plate (Tz) and the dilution series plate […] which included a column of cells grown in media without compound as a control (C) using the formulas:
# [(Ti−Tz)/(C−Tz)]×100 for concentrations for which Ti>/=Tz
# [(Ti−Tz)/Tz]×100 for concentrations for which Ti<Tz.
# Three dose response parameters were calculated for each experimental agent. Growth inhibition of 50% (GI50) was calculated from [(Ti−Tz)/(C−Tz)]×100=50, which was the drug concentration resulting in a 50% reduction in the net protein increase (as measured by SRB staining) in control cells during the drug incubation. The drug concentration resulting in total growth inhibition (TGI) was calculated from Ti=Tz. The LC50 (concentration of drug resulting in a 50% reduction in the measured protein at the end of the drug treatment as compared to that at the beginning) indicating a net loss of cells following treatment ws calculated from [(Ti−Tz)/Tz]×100=−50. Values are calculated for each of these three parameters if the level of activity was reached; however, if the effect was not reached or was exceeded, the value for that parameter is expressed as greater or less than the maximum or minimum concentration tested.
# [2] = biological target: T1, N-terminal GST-tagged recombinant human Flt3, residues 564-end (Homo sapiens, UniProt P36888); assay: Flt3 kinase inhibition assay (33P-ATP filter assay); format: biochemical
# T1 construct: recombinant human Flt3, residues 564-end; GST (N); purchased Upstate USA Inc, 706 Forest Street, Charlottesville, Va
# T1 sequence (P36888 564-993 limits assumed): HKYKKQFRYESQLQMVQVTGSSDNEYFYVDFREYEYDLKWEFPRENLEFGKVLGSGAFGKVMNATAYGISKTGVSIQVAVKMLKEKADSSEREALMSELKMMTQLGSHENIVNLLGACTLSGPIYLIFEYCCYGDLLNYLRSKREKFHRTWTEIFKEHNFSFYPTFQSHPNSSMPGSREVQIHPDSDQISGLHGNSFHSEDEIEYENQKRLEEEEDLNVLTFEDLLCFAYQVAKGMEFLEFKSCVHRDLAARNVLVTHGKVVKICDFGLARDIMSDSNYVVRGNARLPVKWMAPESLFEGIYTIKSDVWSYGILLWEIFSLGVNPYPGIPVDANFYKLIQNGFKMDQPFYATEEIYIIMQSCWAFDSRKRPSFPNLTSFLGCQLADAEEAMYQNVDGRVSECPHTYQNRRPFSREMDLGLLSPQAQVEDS
# Method: (§1) Compounds were assayed for Flt3 kinase inhibitory activity using N-terminal GST-tagged recombinant human Flt3, residues 564-end (Upstate USA Inc, 706 Forest Street, Charlottesville, Va.). Serial dilutions of compound were assayed in a final reaction volume of 25 μL by incubating a solution of the above Flt3 kinase (5-10 mU), 8 mM MOPS (3-(N-morpholino) propanesulfonic acid) pH 7.0, 0.2 mM EDTA (ethylenediamine tetracetic acid), 50 μM amino acid sequence EAIYAAPFAKKK (Upstate USA Inc, 706 Forest Street, Charlottesville, Va.), and 10 mM magnesium acetate and [γ-^33P-ATP] (specific activity of about 500 cpm/μmol, concentration as required). The reaction was initiated by the addition of the magnesium acetate and [γ-^33P-ATP] mixture. After incubation for 40 minutes at room temperature, the reaction was stopped by the addition of 5 μL of a 3% phosphoric acid solution. A 10 μL aliquote of the reaction was then spotted onto a P30 filtermat (PerkinElmer, Wellesley, Mass.) and washed three times for five minutes in 75 mM phosphoric acid and once in methanol prior to drying and scintillation counting. Inhibition of Flt3 activity was determined by comparison to assays that contained no inhibitor.
# [3] = biological target: T2, N-terminal His6-tagged recombinant human KDR, residues 790-end (Homo sapiens, UniProt P35968); assay: KDR kinase inhibition assay (33P-ATP filter assay); format: biochemical
# T2 construct: recombinant human KDR, residues 790-end; His6 (N); purchased Upstate USA Inc, 706 Forest Street, Charlottesville, Va
# T2 sequence (P35968 790-1356 limits assumed): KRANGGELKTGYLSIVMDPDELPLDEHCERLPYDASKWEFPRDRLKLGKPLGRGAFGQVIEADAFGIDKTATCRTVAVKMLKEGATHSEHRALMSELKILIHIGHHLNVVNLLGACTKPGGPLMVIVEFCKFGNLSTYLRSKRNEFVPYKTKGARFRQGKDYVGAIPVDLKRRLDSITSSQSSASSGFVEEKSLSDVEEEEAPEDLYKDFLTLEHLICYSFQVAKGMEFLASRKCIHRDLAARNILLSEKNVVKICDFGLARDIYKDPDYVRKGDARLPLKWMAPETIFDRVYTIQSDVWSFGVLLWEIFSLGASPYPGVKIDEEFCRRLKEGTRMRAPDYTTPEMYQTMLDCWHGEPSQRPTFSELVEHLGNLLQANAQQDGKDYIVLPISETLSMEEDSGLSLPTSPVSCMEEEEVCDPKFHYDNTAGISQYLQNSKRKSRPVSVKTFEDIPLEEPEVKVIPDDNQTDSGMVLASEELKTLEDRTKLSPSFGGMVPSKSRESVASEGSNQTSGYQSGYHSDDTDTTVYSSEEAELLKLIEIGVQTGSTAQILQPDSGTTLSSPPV
# Method: as §1, with “KDR” for “Flt3”, “His6-tagged” for “GST-tagged”, “KDR,” for “Flt3,”, “790-end” for “564-end”, “0.33 mg/mL myelin basic protein” for “50 μM amino acid sequence EAIYAAPFAKKK”
# [4] = biological target: T3, N-terminal His-tagged human Src (Homo sapiens, UniProt P12931); assay: Src kinase inhibition assay (33P-ATP filter assay); format: biochemical
# T3 construct: His (N); purchased Upstate USA Inc, 706 Forest Street, Charlottesville, Va
# T3 sequence (P12931 whole entry): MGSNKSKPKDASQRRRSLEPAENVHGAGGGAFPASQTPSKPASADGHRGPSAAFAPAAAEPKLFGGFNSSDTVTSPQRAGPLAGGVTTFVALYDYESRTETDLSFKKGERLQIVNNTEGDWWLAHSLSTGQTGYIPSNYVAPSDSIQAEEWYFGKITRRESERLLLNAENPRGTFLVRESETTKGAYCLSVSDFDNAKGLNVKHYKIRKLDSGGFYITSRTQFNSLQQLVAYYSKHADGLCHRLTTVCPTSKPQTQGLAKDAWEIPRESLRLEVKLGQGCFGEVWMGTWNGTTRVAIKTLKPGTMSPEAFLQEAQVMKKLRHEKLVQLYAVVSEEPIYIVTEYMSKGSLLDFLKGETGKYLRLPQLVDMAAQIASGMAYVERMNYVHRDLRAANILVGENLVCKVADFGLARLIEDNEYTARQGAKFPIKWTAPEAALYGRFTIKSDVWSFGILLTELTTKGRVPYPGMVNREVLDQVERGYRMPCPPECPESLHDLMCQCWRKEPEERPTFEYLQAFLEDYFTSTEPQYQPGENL
# Method: Compounds were assayed for Src kinase inhibitory activity using N-terminal His-tagged human Src (Upstate USA Inc, 706 Forest Street, Charlottesville, Va.). Serial dilutions of compound were assayed in a final reaction volume of 25 μL by incubating a solution of the above Src kinase (5-10 mU), 8 mM MOPS (3-(N-morpholino) propanesulfonic acid) pH 7.0, 0.2 mM EDTA (ethylenediamine tetracetic acid), 250 μM amino acid sequence KVEKIGEGTYGVVYK (Upstate USA Inc, 706 Forest Street, Charlottesville, Va.), and 10 mM magnesium acetate and [γ-^33P-ATP] (specific activity of about 500 cpm/μmol, concentration as required). The reaction was initiated by the addition of the magnesium acetate and [γ-^33P-ATP] mixture. After incubation for 40 minutes at room temperature, the reaction was stopped by the addition of 5 μL of a 3% phosphoric acid solution. A 10 μL aliquote of the reaction was then spotted onto a P30 filtermat (PerkinElmer, Wellesley, Mass.) and washed three times for five minutes in 75 mM phosphoric acid and once in methanol prior to drying and scintillation counting. Inhibition of Src activity was determined by comparison to assays that contained no inhibitor.
# [5] = group with IC50 greater than 100 nM
SMILES,IC50 ([2]; 40 minutes at room temperature) [nM],"IC50 [3, 5] [nM]",IC50 [1] [µM],also measured
"Cc1cc(Nc2cc(N3CCN(C)CC3)nc(-c3ccc(S(C)(=O)=O)cc3)n2)n[nH]1 [Compound 95, N-(5-methyl-1H-pyrazol-3-yl)-6-(4-methylpiperazin-1-yl)-2-(4-(methylsulfonyl)phenyl)pyrimidin-4-amine]",,,,GI50 [1]: ≤ 1000 nM
"Cc1cc(Nc2cc(NC3CCOCC3)nc(-c3c(C)cccc3C)n2)n[nH]1 [Example 199, 2-(2,6-dimethylphenyl)-N^4-(5-methyl-1H-pyrazol-3-yl)-N^6-(tetrahydro-2H-pyran-4-yl)pyrimidine-4,6-diamine]",,,,"IC50 [2, 5]: ≤ 1000 nM"
"Cc1cc(Nc2cc(N(C)CCN(C)C)nc(-c3cc(F)ccc3F)n2)n[nH]1 [Example 183, 2-(2,5-difluorophenyl)-N^4-(2-(dimethylamino)ethyl)-N^4-methyl-N^6-(5-methyl-1H-pyrazol-3-yl)pyrimidine-4,6-diamine]",≤ 100,,1 to 10,"IC50 ([3]; 40 minutes at room temperature): ≤ 100 nM; IC50 [4, 5]: ≤ 1000 nM"
"Cc1cc(Nc2cc(N3CCN(C)CC3)nc(-c3c(C)cccc3C)n2)n[nH]1 [Example 194, 2-(2,6-dimethylphenyl)-N-(5-methyl-1H-pyrazol-3-yl)-6-(4-methylpiperazin-1-yl)pyrimidin-4-amine]",,,,"IC50 [2, 5]: ≤ 1000 nM"
"COc1ccccc1-c1nc(Nc2cc(C)[nH]n2)cc(NC2CCOCC2)n1 [Compound 30, 2-(2-methoxyphenyl)-N^4-(5-methyl-1H-pyrazol-3-yl)-N^6-(tetrahydro-2H-pyran-4-yl)pyrimidine-4,6-diamine]",,≤ 1000,,
"Cc1cc(Nc2cc(N(C)CCN(C)C)nc(-c3c(C)cccc3C)n2)n[nH]1 [Example 195, N^4-(2-(dimethylamino)ethyl)-2-(2,6-dimethylphenyl)-N^4-methyl-N^6-(5-methyl-1H-pyrazol-3-yl)pyrimidine-4,6-diamine]",,,,"IC50 [2, 5]: ≤ 1000 nM"
"Cc1cc(Nc2cc(N(C)CCN(C)C)nc(-c3cccc4c3OCCO4)n2)n[nH]1 [Example 143, 2-(2,3-dihydrobenzo[b][1,4]dioxin-5-yl)-N^4-(2-(dimethylamino)ethyl)-N^4-methyl-N^6-(5-methyl-1H-pyrazol-3-yl)pyrimidine-4,6-diamine]",≤ 100,≤ 1000,1 to 10,
"Cc1cc(Nc2cc(N3CCN(C)CC3)nc(-c3cc(C(F)(F)F)cc(C(F)(F)F)c3)n2)n[nH]1 [Example 173, 2-(3,5-bis(trifluoromethyl)phenyl)-N-(5-methyl-1H-pyrazol-3-yl)-6-(4-methylpiperazin-1-yl)pyrimidin-4-amine]",≤ 100,,,GI50 [1]: ≤ 1000 nM
"Cc1cccc(-c2nc(Nc3cc(C)[nH]n3)cc(NC3CCOCC3)n2)c1 [Compound 26, N^4-(5-methyl-1H-pyrazol-3-yl)-N^6-(tetrahydro-2H-pyran-4-yl)-2-m-tolylpyrimidine-4,6-diamine]",,,1 to 10,"IC50 ([3]; 40 minutes at room temperature): ≤ 100 nM; IC50 [4, 5]: ≤ 1000 nM"

# Further lines, with some results ahead:
IC50 ([2]; 40 minutes at room temperature) [nM],"IC50 [3, 5] [nM]",SMILES,IC50 [1] [µM],also measured
≤ 100,,"COCCN(C)c1cc(Nc2cc(C)[nH]n2)nc(-c2cc(C)ccc2C)n1 [Example 202, 2-(2,5-dimethylphenyl)-N^4-(2-methoxyethyl)-N^4-methyl-N^6-(5-methyl-1H-pyrazol-3-yl)pyrimidine-4,6-diamine]",1 to 10,
≤ 100,≤ 1000,"COc1ccccc1-c1nc(Nc2cc(C)[nH]n2)cc(N(C)CCN(C)C)n1 [Compound 56, N^4-(2-(dimethylamino)ethyl)-2-(2-methoxyphenyl)-N^4-methyl-N^6-(5-methyl-1H-pyrazol-3-yl)pyrimidine-4,6-diamine]",,GI50 [1]: ≤ 1000 nM
≤ 100,≤ 1000,"CCc1ccccc1-c1nc(Nc2cc(C)[nH]n2)cc(N(C)CCOC)n1 [Example 187, 2-(2-ethylphenyl)-N^4-(2-methoxyethyl)-N^4-methyl-N^6-(5-methyl-1H-pyrazol-3-yl)pyrimidine-4,6-diamine]",,IC50 ([4]; 40 minutes at room temperature): ≤ 100 nM
≤ 100,≤ 1000,"Cc1ccc(C)c(-c2nc(Nc3cc(C)[nH]n3)cc(N(C)CCN(C)C)n2)c1 [Example 207, N^4-(2-(dimethylamino)ethyl)-2-(2,5-dimethylphenyl)-N^4-methyl-N^6-(5-methyl-1H-pyrazol-3-yl)pyrimidine-4,6-diamine]",,
,≤ 1000,"COCCN(C)c1cc(Nc2cc(C)[nH]n2)nc(-c2ccccc2OC)n1 [Compound 69, N^4-(2-methoxyethyl)-2-(2-methoxyphenyl)-N^4-methyl-N^6-(5-methyl-1H-pyrazol-3-yl)pyrimidine-4,6-diamine]",1 to 10,"IC50 [2, 5]: ≤ 1000 nM"
≤ 100,,"COCCN(C)c1cc(Nc2cc(C)[nH]n2)nc(-c2ccc(C(C)(C)C)cc2)n1 [Compound 115, 2-(4-tert-butylphenyl)-N^4-(2-methoxyethyl)-N^4-methyl-N^6-(5-methyl-1H-pyrazol-3-yl)pyrimidine-4,6-diamine]",1 to 10,"IC50 [4, 5]: ≤ 1000 nM"
